The source made the active and inactive calls.
How the values were obtained:
Cytochrome P450 2C9 = Cytochrome P450 2C9 (Homo sapiens, UniProt P11712)
Cytochrome P450 2C19 = Cytochrome P450 2C19 (Homo sapiens, UniProt P33261); assay: Cytochrome panel assay with activity outcomes. Panel member name: p450-cyp2c19 Compounds with AC50 equal or less than 10 uM are considered active; assay type: functional; conditions: read-out: AC50
[1] = molecular target: T1, Corticotropin-releasing factor receptor 2/Corticotropin-releasing factor-binding protein (Homo sapiens, UniProt P24387+Q13324); assay: activators of CRF receptor 2 with binding protein – uHTS hits, confirmation (AID 602473); assay type: functional; conditions: read-out: EC50_Mean
T1 sequence (Q13324 whole entry): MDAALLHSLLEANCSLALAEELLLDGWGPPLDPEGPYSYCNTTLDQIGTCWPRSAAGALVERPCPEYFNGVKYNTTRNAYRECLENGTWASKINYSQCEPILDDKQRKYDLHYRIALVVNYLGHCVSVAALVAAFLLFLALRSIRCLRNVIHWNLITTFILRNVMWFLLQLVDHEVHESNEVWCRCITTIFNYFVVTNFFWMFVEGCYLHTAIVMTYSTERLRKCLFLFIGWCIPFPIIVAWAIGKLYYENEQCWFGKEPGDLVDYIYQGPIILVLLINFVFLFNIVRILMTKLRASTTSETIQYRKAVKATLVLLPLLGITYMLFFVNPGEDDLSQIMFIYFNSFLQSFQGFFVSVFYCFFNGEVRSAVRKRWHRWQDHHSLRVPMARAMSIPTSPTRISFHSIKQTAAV
T1 sequence (P24387 whole entry): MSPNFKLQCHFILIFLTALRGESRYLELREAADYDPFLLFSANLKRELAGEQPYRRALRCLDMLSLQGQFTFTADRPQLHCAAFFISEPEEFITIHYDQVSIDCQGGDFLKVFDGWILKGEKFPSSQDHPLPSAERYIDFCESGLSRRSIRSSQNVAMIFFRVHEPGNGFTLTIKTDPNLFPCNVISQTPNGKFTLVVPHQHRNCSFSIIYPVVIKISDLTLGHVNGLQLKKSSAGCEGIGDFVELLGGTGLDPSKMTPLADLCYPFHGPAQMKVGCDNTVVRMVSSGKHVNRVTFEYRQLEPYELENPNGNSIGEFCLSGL

Cytochrome P450 1A2 = molecular target: T2, Cytochrome P450 1A2 (Homo sapiens, UniProt P05177);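 also: PubChem cytochrome P450 panel assay, CYP1A2 panel member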
T2 sequence (P05177 whole entry): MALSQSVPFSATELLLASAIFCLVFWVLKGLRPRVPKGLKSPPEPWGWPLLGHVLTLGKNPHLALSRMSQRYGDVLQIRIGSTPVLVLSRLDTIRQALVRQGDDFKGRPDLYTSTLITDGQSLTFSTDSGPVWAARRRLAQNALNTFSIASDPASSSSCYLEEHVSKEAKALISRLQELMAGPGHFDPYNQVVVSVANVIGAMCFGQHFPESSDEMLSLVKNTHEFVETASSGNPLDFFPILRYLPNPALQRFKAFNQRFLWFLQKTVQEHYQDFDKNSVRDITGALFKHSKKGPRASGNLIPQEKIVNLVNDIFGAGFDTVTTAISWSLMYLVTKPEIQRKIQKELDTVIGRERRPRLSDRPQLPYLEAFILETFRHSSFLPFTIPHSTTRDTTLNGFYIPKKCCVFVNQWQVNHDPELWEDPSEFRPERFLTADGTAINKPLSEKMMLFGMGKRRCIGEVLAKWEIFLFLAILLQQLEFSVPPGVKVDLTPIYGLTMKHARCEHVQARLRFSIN

Cytochrome P450 3A4 = Cytochrome P450 3A4 (Homo sapiens, UniProt P08684);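 also: CYP3A4 tested as one member of a cytochrome P450 panel screen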
[2] = NIH3T3 cell viability loss – ATP luminescence, mouse fibroblasts, counter-screen, dose response (AID 2010); assay type: functional, cell-based;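 also: cells exposed to compound for about 90 hours before reading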
[3] = Trypanosoma cruzi growth suppression in host cells – NIH3T3 host cells, beta-gal luminescence, confirmation (AID 2044); assay type: functional, cell-based;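 also: intracellular parasites grown in NIH/3T3 mouse fibroblasts as host cells; luminescent beta-galactosidase reporter signal from transgenic T. cruzi replicating inside host cells; inhibitors lower the luminescence signal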
[4] = luciferase reporter signal suppression in cells – H4 neuroglioma cells, luminescence, dose response (AID 1990); assay type: functional, cell-based
[5] = system: Streptococcus sp. 'group A'; assay: Streptococcus pyogenes SK(-)GAS viability under kanamycin – luminescence, BacTiterGlo, confirmation, counter-screen for streptokinase expression inhibitor project, dose response (AID 1900); assay type: functional, organism-based
Streptococcus = assay: GAS UMAA2166 growth inhibition – luminescence, BacTiterGlo, counter-screen for streptokinase expression inhibitor project, dose response (AID 1915); assay type: functional, organism-based;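 also: potency for reduction of bacterial viability or growth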

Chain of Cytochrome P450 3A4 (P08684 whole entry): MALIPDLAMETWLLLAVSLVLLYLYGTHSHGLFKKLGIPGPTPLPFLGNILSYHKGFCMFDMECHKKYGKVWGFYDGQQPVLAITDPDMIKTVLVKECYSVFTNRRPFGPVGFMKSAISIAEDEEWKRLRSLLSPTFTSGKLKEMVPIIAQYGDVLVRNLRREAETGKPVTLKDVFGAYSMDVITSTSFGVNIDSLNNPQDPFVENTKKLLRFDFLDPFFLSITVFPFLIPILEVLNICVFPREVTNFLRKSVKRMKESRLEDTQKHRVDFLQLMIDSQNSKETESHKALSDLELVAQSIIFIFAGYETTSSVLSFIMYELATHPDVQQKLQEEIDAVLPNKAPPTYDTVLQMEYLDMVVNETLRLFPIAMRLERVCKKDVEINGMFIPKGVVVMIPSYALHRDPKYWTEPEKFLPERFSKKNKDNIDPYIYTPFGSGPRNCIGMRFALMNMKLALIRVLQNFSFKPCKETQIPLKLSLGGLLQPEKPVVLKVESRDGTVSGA
Chain of Cytochrome P450 2C19 (P33261 whole entry): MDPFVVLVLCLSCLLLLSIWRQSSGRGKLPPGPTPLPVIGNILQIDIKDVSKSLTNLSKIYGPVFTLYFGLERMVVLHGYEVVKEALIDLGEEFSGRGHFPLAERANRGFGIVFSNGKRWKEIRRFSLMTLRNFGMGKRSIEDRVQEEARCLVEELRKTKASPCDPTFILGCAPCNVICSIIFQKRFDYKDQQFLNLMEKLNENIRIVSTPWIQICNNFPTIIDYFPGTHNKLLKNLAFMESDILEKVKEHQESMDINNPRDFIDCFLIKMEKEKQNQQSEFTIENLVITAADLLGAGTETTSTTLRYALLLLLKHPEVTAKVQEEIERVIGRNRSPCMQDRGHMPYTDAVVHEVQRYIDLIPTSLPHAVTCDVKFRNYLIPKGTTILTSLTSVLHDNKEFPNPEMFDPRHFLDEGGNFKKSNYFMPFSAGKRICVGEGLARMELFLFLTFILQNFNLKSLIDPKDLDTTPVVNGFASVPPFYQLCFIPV
Chain of Cytochrome P450 2C9 (P11712 whole entry): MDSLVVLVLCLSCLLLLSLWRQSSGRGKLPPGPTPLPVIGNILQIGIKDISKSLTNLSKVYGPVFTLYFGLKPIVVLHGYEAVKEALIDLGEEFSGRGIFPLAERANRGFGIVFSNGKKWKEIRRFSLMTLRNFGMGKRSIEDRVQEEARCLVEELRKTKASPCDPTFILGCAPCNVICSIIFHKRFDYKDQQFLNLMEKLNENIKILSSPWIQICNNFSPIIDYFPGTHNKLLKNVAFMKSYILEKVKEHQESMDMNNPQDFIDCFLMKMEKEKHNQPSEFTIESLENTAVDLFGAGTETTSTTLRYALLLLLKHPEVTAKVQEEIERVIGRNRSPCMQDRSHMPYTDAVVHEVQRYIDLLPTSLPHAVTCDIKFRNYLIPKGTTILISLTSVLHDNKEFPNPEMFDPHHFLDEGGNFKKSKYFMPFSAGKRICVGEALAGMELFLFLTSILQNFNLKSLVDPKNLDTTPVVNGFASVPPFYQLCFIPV

O=[N+]([O-])c1ccc([C@@H](Nc2ccccc2)c2ccc3cccnc3c2O)cc1
AC50 (Cytochrome P450 2C9): 6.31 µM (inconclusive)

COc1ccc(NC(=O)CC#N)cc1OC
AC50 (Cytochrome P450 2C19): 0.00501 µM (inconclusive)

O=C(OCC(=O)N1N=C(c2ccc(Cl)cc2)CC1c1ccco1)c1ccco1 (stereo unspecified)
EC50 [1]: > 53 µM (inactive)

COc1ccc(CC(=N)NOC(=O)Cc2ccccc2)cc1OC
AC50 (Cytochrome P450 2C19): 15.8 µM (inconclusive)
AC50 (Cytochrome P450 1A2): 14.1 µM (inconclusive)

O=C(CSCc1ccccc1Cl)NNC(=O)c1ccccc1
AC50 (Cytochrome P450 1A2): 15.8 µM (inconclusive)
AC50 (Cytochrome P450 3A4): 11.2 µM (inconclusive)

Cc1cccc(Nc2nc(-c3ccncc3)cs2)c1
EC50 [2]: 6.1 µM (active)
EC50 [3]: 154 nM (active)

CC(=O)Nc1cccc(NC(=O)C2CCCN2C(=O)Nc2ccccc2C)c1 (stereo unspecified)
AC50 (Cytochrome P450 1A2): 25.1 µM (inconclusive)
AC50 (Cytochrome P450 2C9): 20 µM (inconclusive)

Cc1cccc(NC(=O)c2cccc(Cn3cc(Br)c([N+](=O)[O-])n3)c2)c1C
EC50 [2]: 39 µM (active)
EC50 [3]: 834 nM (active)

CCC1CCCCN1Cc1ccc(OC)c(C)c1 (stereo unspecified)
EC50 [1]: 14 µM (active)

CC1CC(C)CN(C/C=C/c2ccccc2[N+](=O)[O-])C1 (stereo unspecified)
AC50 (Cytochrome P450 1A2): 14.1 µM (inconclusive)
AC50 (Cytochrome P450 2C9): 1.58 µM (inconclusive)
AC50 (Cytochrome P450 3A4): 25.1 µM (inconclusive)

Cc1ccc(C)c(N2CCN(C(=O)c3ccc(Cn4c(=S)[nH]c5ccc(N6CCOCC6)cc5c4=O)cc3)CC2)c1
EC50 [2]: > 60 µM (not active)
EC50 [3]: 458 nM (active)

Cc1cccc(N(CC(=O)NC2CCCC2)C(=O)c2cc3cc4cccc(C)c4nc3s2)c1C
EC50 [2]: > 60 µM (not active)
EC50 [3]: 1600 nM (active)

Cc1nnc(C)n1/N=C/c1ccc(-c2ccccc2)cc1
AC50 (Cytochrome P450 1A2): 10 µM (inconclusive)
AC50 (Cytochrome P450 2C9): 12.6 µM (inconclusive)
AC50 (Cytochrome P450 3A4): 22.4 µM (inconclusive)

CCCn1c(SCC(=O)N2CC(=O)Nc3ccccc32)nc2ccccc21
EC50 [1]: > 53 µM (inactive)

Clc1ccc(OCCCCCN2CCCC2)c(Br)c1
EC50 [2]: 10.9 µM (active)
EC50 [3]: 231 nM (active)

FC(F)(F)c1nc2ccc(SSc3ccc4nc(C(F)(F)F)[nH]c4c3)cc2[nH]1
AC50 (Cytochrome P450 1A2): 0.501 µM (inconclusive)
AC50 (Cytochrome P450 2C9): 7.94 µM (inconclusive)

CN1CCN(/N=C/c2ccc(-c3ccc([N+](=O)[O-])cc3)o2)CC1
EC50 [2]: > 60 µM (not active)
EC50 [3]: 1110 nM (active)

COc1ccc2c(c1)C(=O)N(Cc1ccco1)C(=O)/C2=C\Nc1c(C)n(C)n(-c2ccccc2)c1=O
AC50 (Cytochrome P450 2C9): 7.94 µM (inconclusive)
AC50 (Cytochrome P450 3A4): 8.91 µM (inconclusive)

CCc1nnc2sc(-c3ccc(NC(=O)c4ccco4)cc3)nn12
AC50 (Cytochrome P450 1A2): 14.1 µM (inconclusive)
AC50 (Cytochrome P450 3A4): 0.708 µM (inconclusive)

Cc1n[nH]c(C)c1S(=O)(=O)N1CCC(C(=O)O)CC1
AC50 (Cytochrome P450 2C19): 22.4 µM (inconclusive)

CS(=O)(=O)N1CCC2(CC1)CN(c1ccncc1)C2
AC50 (Cytochrome P450 2C19): 20 µM (inconclusive)

CN1CCCC2(CCN(S(=O)(=O)c3ccccc3)CC2)C1
AC50 (Cytochrome P450 1A2): 20 µM (inconclusive)

CCc1sc(-c2c(C#N)c(N)nc3c2CCCCCC3)cc1[N+](=O)[O-]
AC50 (Cytochrome P450 2C9): 2.82 µM (inconclusive)

CC1(C)Cc2ccccc2C(NNC(=O)c2ccncc2)=N1
AC50 (Cytochrome P450 2C19): 31.6 µM (inconclusive)

COc1ccc(OC)c(NC(=O)c2cc3n(n2)C(C(F)(F)F)CC(c2ccc4c(c2)OCO4)N3)c1 (stereo unspecified)
AC50 (Cytochrome P450 2C9): 0.794 µM (inconclusive)

CCc1ccc(OCCNC(=O)c2ccccc2SCc2ccc(F)cc2)cc1
EC50 [2]: > 60 µM (not active)
EC50 [3]: 2670 nM (active)

CCCNC(=O)OC[C@@H]1O[C@H](CCO/N=C2\c3cc(OC)ccc3O[C@H](c3cccc(OC)c3)[C@H]2O)C=C[C@@H]1Oc1ccc(OC)cc1
AC50 (Cytochrome P450 2C9): 6.31 µM (inconclusive)

N#C/C(=C\c1cc([N+](=O)[O-])c(N2CCCCC2)cc1N1CCCCC1)c1nn(-c2ccccc2)c(N)c1C#N
AC50 (Cytochrome P450 3A4): 2.24 µM (inconclusive)

CCc1ccc(OCC(=O)OC2CCS(=O)(=O)C2)cc1 (stereo unspecified)
AC50 (Cytochrome P450 1A2): 12.6 µM (inconclusive)

CN(C)c1ncc2nc(-c3ccc(F)cc3)c(=O)n(C3CC3)c2n1
AC50 (Cytochrome P450 2C9): 0.251 µM (inconclusive)

C=CC[C@@H]1C=C[C@@H](O/N=C\C[C@@H]2C=C[C@H](OC(C)=O)[C@H](COC(C)=O)O2)[C@@H](CO)O1
AC50 (Cytochrome P450 3A4): 3.98 µM (inconclusive)

CCOC(=O)CNS(=O)(=O)c1cc(-c2nn(C)c(=O)c3ccccc23)ccc1C
AC50 (Cytochrome P450 3A4): 39.8 µM (inconclusive)

OCCNCCCOc1cccc(Cl)c1Cl
AC50 (Cytochrome P450 3A4): 31.6 µM (inconclusive)

C=CCNc1cnn(-c2ccc(C)cc2)c(=O)c1Cl
AC50 (Cytochrome P450 1A2): 28.2 µM (inconclusive)

Cc1ccc(C(=O)N/N=C/c2cn(Cc3ccccc3)c3ccccc23)cn1
EC50 [4]: 7.88 µM (active)

CC(C)(CO)N1CCN(C(S)=Nc2ccccc2)CC1
AC50 (Cytochrome P450 1A2): 6.31 µM (inconclusive)

COc1ccccc1C(=O)NNC(=O)C(=O)Nc1ccc(C)c(Cl)c1
EC50 [5]: 1.73 µM (active)
EC50 (Streptococcus): 3.87 µM (active)

COc1ccc(CN2CCSCC2)cc1C
EC50 [1]: 12.7 µM (active)

O=C(CCC(=O)OCc1ccc(C(=O)Oc2ccccc2)cc1)Nc1cccc2ccccc12
AC50 (Cytochrome P450 1A2): 8.91 µM (inconclusive)

Clc1ccc2c(c1)N(CCCN1CCCC13CCCCC3)c1ccccc1S2
AC50 (Cytochrome P450 2C19): 5.01 µM (inconclusive)

CCCCCCCC(=O)O[C@H](CC(=O)O)C[N+](C)(C)C [OCTANOYLCARNITINE]
AC50 (Cytochrome P450 1A2): 31.6 µM (inconclusive)

CCNCc1cc(OCC)c(OCC(=O)NCCc2ccccc2)cc1Cl
AC50 (Cytochrome P450 2C9): 20 µM (inconclusive)

COc1ccc(-c2cc3ncnc(Cl)c3s2)cc1
EC50 [5]: 9.73 µM (active)
EC50 (Streptococcus): 26 µM (active)

COc1c(F)c(F)c(C(=O)O)c(Nc2ccc(C)cc2)c1F
AC50 (Cytochrome P450 1A2): 22.4 µM (inconclusive)

CC(=O)c1cccc(NC(=O)CSCc2ccccc2)c1
AC50 (Cytochrome P450 2C9): 7.94 µM (inconclusive)
AC50 (Cytochrome P450 3A4): 28.2 µM (inconclusive)

COc1cc2c(C(=O)N3CCN(C)CC3)c(C)n(-c3ccccc3)c2cc1Br
AC50 (Cytochrome P450 1A2): 25.1 µM (inconclusive)
AC50 (Cytochrome P450 2C9): 22.4 µM (inconclusive)

O=C(Nc1nnc(C2=COCCO2)o1)c1ccc(Br)cc1
EC50 [5]: 1.9 µM (active)
EC50 (Streptococcus): 5.47 µM (active)

Cn1c(=O)c(-c2cccs2)nc2cncnc21
AC50 (Cytochrome P450 2C9): 39.8 µM (inconclusive)

COc1ccc(-c2csc3c2[N+]2=CCC=C2C3[O-])cc1 (stereo unspecified)
AC50 (Cytochrome P450 2C9): 6.31 µM (inconclusive)
AC50 (Cytochrome P450 3A4): 3.16 µM (inconclusive)

O=C(Cn1cnc2cc([N+](=O)[O-])ccc2c1=O)Nc1ccccc1-c1ccccc1
EC50 [2]: > 30 µM (not active)
EC50 [3]: 629 nM (active)

COC(=O)[C@@]1(Cc2ccc(F)cc2)[C@H]2c3cc(C(=O)N4CCCC4)n(Cc4ccccn4)c3C[C@H]2CN1C(=O)c1ccccc1
AC50 (Cytochrome P450 2C19): 39.8 µM (inconclusive)
AC50 (Cytochrome P450 1A2): 20 µM (inconclusive)

COc1cccc(Nc2ncc3nc(-c4cccs4)c(=O)n(Cc4cccs4)c3n2)c1
AC50 (Cytochrome P450 1A2): 2 µM (inconclusive)

CCCCCCc1cc2cc(C(=O)NCc3ccccc3)c(=N)oc2cc1O
EC50 [1]: 4.2 µM (active)

N[C@H](C(=O)O)[C@H](O)C(=O)O
AC50 (Cytochrome P450 1A2): 39.8 µM (inconclusive)
AC50 (Cytochrome P450 3A4): 0.0316 µM (inconclusive)

Cc1ccc(-c2cc(C(F)F)n3ncc(C(=O)N4CCN(c5ccccn5)CC4)c3n2)cc1
EC50 [2]: > 60 µM (not active)
EC50 [3]: 500 nM (active)

Cc1nc(SC2CC(=O)N(c3ccc([N+](=O)[O-])cc3)C2=O)nc2c1CCCC2 (stereo unspecified)
AC50 (Cytochrome P450 2C9): 11.2 µM (inconclusive)
AC50 (Cytochrome P450 3A4): 20 µM (inconclusive)

COc1ccccc1CN1CCCC(C(=O)c2ccccc2SC)C1 (stereo unspecified)
EC50 [2]: > 60 µM (not active)
EC50 [3]: 1600 nM (active)
